Toxic doses and inconclusive results are not listed. Rule as the data show it: active = T/C of 150% or more; inactive = T/C below 125%.
System: L1210 leukemia ip in BDF1 mice, survival T/C
Assay: NCI In Vivo Anticancer Drug Screen. Data for tumor model L1210 Leukemia (intraperitoneal) in B6D2F1 (BDF1) mice
Details: endpoint: mean survival time, higher = longer survival
How it was run: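 Ratio derived from survival: compound-dosed mice over vehicle-dosed mice, all bearing a transplantable tumor.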

[1] = dose: 100.0 mg/kg/injection, schedule: Q01DX001 (ip), vehicle: carboxymethylcellulose (CMC)
[2] = dose: 100.0 mg/kg/injection, schedule: Q01DX009 (ip), vehicle: saline with Tween-80
[3] = dose: 200.0 mg/kg/injection, schedule: Q01DX001 (ip), vehicle: carboxymethylcellulose (CMC)
[4] = dose: 400.0 mg/kg/injection, schedule: Q01DX001 (ip), vehicle: carboxymethylcellulose (CMC)
[5] = dose: 100.0 mg/kg/injection, schedule: Q01DX009 (ip), vehicle: Klucel (hydroxypropylcellulose) (HPC)
[6] = dose: 100.0 mg/kg/injection, schedule: Q04DX003 (ip), vehicle: Klucel (hydroxypropylcellulose) (HPC)
[7] = dose: 200.0 mg/kg/injection, schedule: Q01DX009 (ip), vehicle: Klucel (hydroxypropylcellulose) (HPC)
[8] = dose: 200.0 mg/kg/injection, schedule: Q04DX003 (ip), vehicle: Klucel (hydroxypropylcellulose) (HPC)
[9] = dose: 400.0 mg/kg/injection, schedule: Q01DX009 (ip), vehicle: Klucel (hydroxypropylcellulose) (HPC)
[10] = dose: 400.0 mg/kg/injection, schedule: Q04DX003 (ip), vehicle: Klucel (hydroxypropylcellulose) (HPC)
[11] = dose: 100.0 mg/kg/injection, schedule: Q01DX001 (ip), vehicle: saline
[12] = dose: 200.0 mg/kg/injection, schedule: Q01DX001 (ip), vehicle: saline
[13] = dose: 25.0 mg/kg/injection, schedule: Q01DX001 (ip), vehicle: saline
[14] = dose: 50.0 mg/kg/injection, schedule: Q01DX001 (ip), vehicle: saline
[15] = dose: 100.0 mg/kg/injection, schedule: Q04DX003 (ip), vehicle: saline with Tween-80

Measured: T/C

CCCCCCCCCCCCOB(OCCCCCCCCCCCC)OCCCCCCCCCCCC
inactive: dose: 50.0 mg/kg/injection, schedule: Q01DX001 (ip), vehicle: carboxymethylcellulose (CMC) 96 % of control | [1] 102 % of control | [2] 98 % of control | [3] 94 % of control | [4] 94 % of control

O=C(OC(c1ccccc1)c1ccccc1)c1ccc([N+](=O)[O-])cc1
inactive: [1] 98 % of control | [3] 104 % of control | [4] 96 % of control

COc1ccc(Cl)cc1NC(=O)NC(Cc1ccccc1)c1ccccc1 (configuration not stated)
inactive: [5] 102 % of control | [6] 101 % of control | [7] 100 % of control | [8] 103 % of control | [9] 105 % of control | [10] 103 % of control

O=C(O)c1ccc(SCc2ccccc2)cc1
inactive: [5] 103 % of control | [7] 101 % of control | [9] 93 % of control

O=[N+]([O-])c1c(O)cc(O)c2ccccc12
inactive: dose: 5.0 mg/kg/injection, schedule: Q01DX001 (ip), vehicle: saline 102 % of control | dose: 10.0 mg/kg/injection, schedule: Q01DX001 (ip), vehicle: saline 106 % of control | dose: 20.0 mg/kg/injection, schedule: Q01DX001 (ip), vehicle: saline 101 % of control | dose: 40.0 mg/kg/injection, schedule: Q01DX001 (ip), vehicle: saline 102 % of control | dose: 80.0 mg/kg/injection, schedule: Q01DX001 (ip), vehicle: saline 104 % of control

CC(C)(C)C(=O)Oc1ccc2ccccc2c1
inactive: dose: 75.0 mg/kg/injection, schedule: Q04DX002 (ip), vehicle: gum acacia 105 % of control | dose: 150.0 mg/kg/injection, schedule: Q04DX002 (ip), vehicle: gum acacia 92 % of control | dose: 300.0 mg/kg/injection, schedule: Q04DX002 (ip), vehicle: gum acacia 123 % of control

COc1cc(C[N+]23CC[N+](Cc4cc(OC)c(OC)c(OC)c4)(CC2)C3)cc(OC)c1OC
inactive: [11] 101 % of control | [12] 98 % of control | dose: 400.0 mg/kg/injection, schedule: Q01DX001 (ip), vehicle: saline 95 % of control

CC(=N/Nc1ccc([N+](=O)[O-])cc1[N+](=O)[O-])/C(C)=C/C1C=CCCC1(C)C (configuration not stated)
inactive: dose: 100.0 mg/kg/injection, schedule: Q04DX002 (ip), vehicle: saline with Tween-80 100 % of control | dose: 200.0 mg/kg/injection, schedule: Q04DX002 (ip), vehicle: saline with Tween-80 103 % of control | dose: 400.0 mg/kg/injection, schedule: Q04DX002 (ip), vehicle: saline with Tween-80 96 % of control

C/C=N\O
inactive: [13] 112 % of control | [14] 102 % of control | [11] 102 % of control

CCOC(=O)NS(=O)(=O)[N+](CC)(CC)CC
inactive: [1] 97 % of control | [3] 97 % of control | [4] 100 % of control

COC(=O)/C(C)=N\N=C(N)N
inactive: dose: 15.0 mg/kg/injection, schedule: Q01DX Z (ip), vehicle: carboxymethylcellulose (CMC) 104 % of control | dose: 30.0 mg/kg/injection, schedule: Q01DX Z (ip), vehicle: carboxymethylcellulose (CMC) 92 % of control | dose: 60.0 mg/kg/injection, schedule: Q01DX Z (ip), vehicle: carboxymethylcellulose (CMC) 103 % of control | dose: 120.0 mg/kg/injection, schedule: Q01DX Z (ip), vehicle: carboxymethylcellulose (CMC) 97 % of control | dose: 240.0 mg/kg/injection, schedule: Q01DX Z (oral), vehicle: carboxymethylcellulose (CMC) 100 % of control | dose: 480.0 mg/kg/injection, schedule: Q01DX Z (oral), vehicle: carboxymethylcellulose (CMC) 96 % of control | dose: 960.0 mg/kg/injection, schedule: Q01DX Z (oral), vehicle: carboxymethylcellulose (CMC) 100 % of control | dose: 1920.0 mg/kg/injection, schedule: Q01DX Z (oral), vehicle: carboxymethylcellulose (CMC) 98 % of control

CCNC(=O)CCl
inactive: [11] 96 % of control | [12] 104 % of control

CS(=O)(=O)OCCN(CCOS(C)(=O)=O)c1ccc(C=Nc2cccc(Cl)c2)c(Cl)c1
inactive: [6] 106 % of control | [8] 105 % of control | [10] 113 % of control

Clc1nc(Cl)c(Cl)c(C(Cl)(Cl)Cl)n1
inactive: dose: 25.0 mg/kg/injection, schedule: Q01DX009 (ip), vehicle: saline with Tween-80 101 % of control | dose: 50.0 mg/kg/injection, schedule: Q01DX009 (ip), vehicle: saline with Tween-80 92 % of control | [2] 87 % of control | dose: 200.0 mg/kg/injection, schedule: Q01DX009 (ip), vehicle: saline with Tween-80 86 % of control

c1ccc(-c2oc3cc4c(cc3c2-c2ccc(OCCN3CCCC3)cc2)CCC4)cc1
inactive: [15] 90 % of control

CC(C)C(CN)(CCCCN1CCCCC1)c1cccc2ccccc12 (configuration not stated)
inactive: [15] 95 % of control

[N-]=[N+]=Nc1nc2c(N)ncnc2n1C1OC(CO)C(O)C1O (configuration not stated)
inactive: [13] 102 % of control | [14] 105 % of control | [11] 103 % of control

CCCCC(CCCC)c1cc[n+](CC(=O)c2ccccc2)cc1
inactive: dose: 12.5 mg/kg/injection, schedule: Q01DX001 (ip), vehicle: saline 106 % of control | [14] 97 % of control

NC(=O)c1ccccc1NC(=O)Nc1cccc(C(F)(F)F)c1
inactive: [5] 86 % of control | dose: 100.0 mg/kg/injection, schedule: Q04DX002 (ip), vehicle: Klucel (hydroxypropylcellulose) (HPC) 102 % of control | [7] 89 % of control | dose: 200.0 mg/kg/injection, schedule: Q04DX002 (ip), vehicle: Klucel (hydroxypropylcellulose) (HPC) 105 % of control | [9] 93 % of control | dose: 400.0 mg/kg/injection, schedule: Q04DX002 (ip), vehicle: Klucel (hydroxypropylcellulose) (HPC) 108 % of control

— PubChem BioAssay AID248 (DTP/NCI, 2004)
